Source: PubChem BioAssay (NCI)
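Method: 48-hour compound exposure of cells in 96-well plates, five concentrations, linear interpolation of endpoints. GI50: concentration for 50% inhibition of growth. Definition used: TGI = concentration required for complete inhibition of growth.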

Tests used:
Test in all cases: NCI anticancer screen, dose series, 48 h
[1] = test system: MOLT-4 leukemia
[2] = test system: OVCAR-8 ovarian
[3] = test system: HOP-62 NSCLC
[4] = test system: SK-MEL-2 melanoma
[5] = test system: SNB-75 CNS
[6] = test system: A498 renal
[7] = test system: OVCAR-4 ovarian
[8] = test system: PC-3 prostate
[9] = test system: A549 NSCLC
[10] = test system: TK-10 renal

| Structure (SMILES) | TGI [1] [µM] | TGI [2] [µM] | TGI [3] [µM] | TGI [4] [µM] | TGI [5] [µM] | TGI [6] [µM] | TGI [7] [µM] | TGI [8] [µM] | TGI [9] [µM] | TGI [10] [µM] | GI50 [1] [µM] | GI50 [2] [µM] | GI50 [3] [µM] | GI50 [4] [µM] | GI50 [5] [µM] | GI50 [6] [µM] | GI50 [7] [µM] | GI50 [8] [µM] | GI50 [9] [µM] | GI50 [10] [µM] |
| --- | --- | --- | --- | --- | --- | --- | --- | --- | --- | --- | --- | --- | --- | --- | --- | --- | --- | --- | --- | --- |
| Cc1nc2c(o1)C(=O)c1ccccc1/C2=N/c1ccccn1 | 43.2 | 31.1 | 37.8 | 43.6 | 20.9 | 30.7 | 28.2 | > 100 | > 100 | > 100 | – | – | – | – | – | – | – | – | – | – |
| CN1CCC2(CC1)C(=O)N(N1CCCCCC1)C(=O)N2c1ccccc1 | > 100 | > 100 | > 100 | > 100 | > 100 | > 100 | > 100 | > 100 | > 100 | > 100 | – | – | – | – | – | – | – | – | – | – |
| COc1cc(OC)c2c(c1OC)OCC(Cc1ccc(O)cc1)C2=O (stereo not given) | > 25 | > 25 | > 25 | > 25 | > 25 | > 25 | > 25 | > 25 | > 25 | > 25 | – | – | – | – | – | – | – | – | – | – |
| NC1C/C(=N\O)c2c(I)sc(I)c21 (stereo not given) | > 100 | 29.1 | 34.4 | 35.2 | 33.4 | > 58 | > 64.9 | 31.6 | 46.4 | 31.3 | – | – | – | – | – | – | – | – | – | – |
| O=C(Cn1nc(Br)c(Br)c1Br)c1ccccc1 | 12.3 | > 100 | > 100 | 56.7 | 63.8 | 85.8 | > 100 | > 100 | 89.7 | 53.1 | – | – | – | – | – | – | – | – | – | – |
| CC(C)C(C/C=C1/CC(CO)(COC(=O)CC(C(C)C)C(C)C)OC1=O)C(C)C (stereo not given) | 32.7 | 29.7 | 18.3 | 30.1 | 18.8 | 11 | 31.8 | 20.2 | 14.6 | 16.1 | – | – | – | – | – | – | – | – | – | – |
| O=C(CN1CCN(C(=O)OCc2ccccc2)CCN(CC(=O)N2CCCCC2)CCN(C(=O)OCc2ccccc2)CC1)N1CCCCC1 | > 46 | 33.8 | 42.2 | 40.2 | 16.5 | 47.1 | 25.4 | 37.3 | > 53.5 | 26.5 | – | – | – | – | – | – | – | – | – | – |
| COC(=O)C(CCC1C=CCC1)N=Cc1ccccc1 (stereo not given) | > 100 | > 100 | > 100 | > 100 | > 100 | > 100 | > 100 | > 100 | > 100 | > 100 | – | – | – | – | – | – | – | – | – | – |
| CC(=O)C1=C(N=[N+]=[N-])c2cccc3cccc(c23)C1=O | 33.2 | 65.8 | 29.7 | 31.4 | 66.9 | 71 | 49.1 | 53.2 | > 100 | 36.1 | – | – | – | – | – | – | – | – | – | – |
| NC1CC(=O)c2csc(Br)c21 (stereo not given) | 46.8 | 33.6 | > 72 | 31.3 | > 79.5 | > 57.9 | 30.5 | 28.4 | > 100 | 27.6 | – | – | – | – | – | – | – | – | – | – |
| NNC(=O)CNC(=O)CSc1nnc(COc2ccc(Cl)cc2)n1-c1ccccc1 | > 100 | > 100 | > 100 | > 100 | > 100 | > 100 | > 100 | > 100 | > 100 | > 100 | – | – | – | – | – | – | – | – | – | – |
| COC(=O)NCCc1[nH]nc2c1C(=O)C=C(Nc1ccccc1)C2=O | 54.4 | 40.2 | > 100 | 99.4 | > 100 | > 100 | 72 | > 100 | > 100 | > 100 | – | – | – | – | – | – | – | – | – | – |
| CC(=O)Oc1ccc2c(c1)c1c(=O)oc(N(C)C)nc1n2Cc1ccccc1 | > 100 | > 100 | > 100 | > 100 | > 100 | > 83 | > 100 | > 100 | > 100 | > 100 | – | – | – | – | – | – | – | – | – | – |
| O=C1NC2(CCCCC2)N=C2C(Cl)CCCC12Cl (stereo not given) | > 100 | > 100 | > 100 | > 100 | > 100 | > 100 | > 100 | > 100 | > 100 | > 100 | – | – | – | – | – | – | – | – | – | – |
| O=C1c2cc3ccccc3cc2C2(c3ccc(Cl)cc3)N[C@H]3CCCC[C@@H]3N12 (stereo not given in full) | > 100 | 19.4 | 20.3 | 35.4 | 37.5 | 39.7 | 21.3 | 42.6 | 36.3 | 27.3 | – | – | – | – | – | – | – | – | – | – |
| CC(C)CCC1(O)O[C@H]2C[C@H]3[C@@H]4CCC5CC(=O)C=C[C@]5(C)[C@H]4CC[C@]3(C)[C@H]2[C@@H]1C (stereo not given in full) | 7.15 | 30.5 | 28.4 | 29.6 | 28 | 28.5 | 24.3 | 17.4 | 28.2 | 24.2 | – | – | – | – | – | – | – | – | – | – |
| O=C1C2C=CC1C1C(=O)OC(=O)C21 (stereo not given) | > 100 | > 100 | > 100 | > 100 | > 100 | > 100 | > 100 | > 100 | > 100 | > 100 | – | – | – | – | – | – | – | – | – | – |
| COc1ccc2c3c1OC1C(=O)C=CC4(O)C(C2)NCC[C@@]314 (stereo not given in full) | 9.13 | 6.36 | 9.87 | 6.65 | 4.32 | 9.39 | 12.9 | 12.2 | 18.2 | 4.99 | – | – | – | – | – | – | – | – | – | – |
| CC(C)(C)c1ccc(CN2CCN(C(c3ccccc3)c3ccc(Cl)cc3)CC2)cc1 (stereo not given) | > 100 | > 100 | > 100 | > 100 | > 100 | > 100 | > 100 | > 100 | > 100 | > 100 | – | – | – | – | – | – | – | – | – | – |
| O=C1OCC(C#Cc2ccccc2)=C1Cl | 46.1 | > 100 | 1.7 | 40.7 | 46.2 | 38 | 73.1 | 5.67 | > 100 | 6.38 | 14.3 | 3.45 | 0.388 | 8.61 | 19.8 | 12 | 15.5 | 1.99 | 5.02 | 1.61 |
| CCCN1C(=O)CCC2=C1CCc1c2ccc(Cl)c1Cl | > 100 | > 100 | > 100 | 41.6 | 33.9 | 33.2 | > 100 | > 100 | > 100 | 49.5 | – | – | – | – | – | – | – | – | – | – |
| CC(=O)OCC1OC(n2c(N)c(C#N)c(-c3ccccc3)c(C#N)c2=S)C(OC(C)=O)C(OC(C)=O)C1OC(C)=O (stereo not given) | > 100 | > 100 | 45 | > 100 | 30 | > 100 | > 100 | > 100 | > 100 | > 100 | – | – | – | – | – | – | – | – | – | – |
| Cc1cc(N(CCC#N)CCC#N)ccc1/C(N=Nc1cccc([N+](=O)[O-])c1)=N/NC(=O)c1cc(Cl)ccc1O | 32.1 | > 100 | > 100 | 63.3 | 82.6 | 49.2 | 92.2 | > 100 | > 100 | > 100 | – | – | – | – | – | – | – | – | – | – |
| O=C1c2ccccc2CC12Cc1cc3c(cc1C2=O)CCC3 (stereo not given) | > 100 | > 100 | > 100 | > 100 | > 100 | > 100 | > 100 | > 100 | > 100 | > 100 | – | – | – | – | – | – | – | – | – | – |
| O=C(Oc1ccccc1)c1cc2cc(CCl)ccc2oc1=O | > 100 | > 100 | > 100 | 15.3 | 57.3 | 33.9 | 68.9 | 29.2 | > 100 | 43.8 | – | – | – | – | – | – | – | – | – | – |
| COc1cc(N=NN(C)C)c(C(C)c2c3cc(OC)c(OC)cc3cc[n+]2C)cc1OC (stereo not given) | > 100 | > 100 | > 100 | 87.5 | > 100 | > 100 | > 100 | > 100 | > 100 | 97.5 | – | – | – | – | – | – | – | – | – | – |
| O=C(O)CSCC(=O)Nc1ccc2cccc3c2c1CC3 | > 100 | > 100 | > 100 | > 100 | > 100 | > 100 | > 100 | > 100 | > 100 | > 100 | – | – | – | – | – | – | – | – | – | – |
| CCP(=O)(CC)C(Cl)(Cl)C(O)C(C)(C)C (stereo not given) | > 100 | > 100 | > 100 | > 100 | > 100 | > 100 | > 100 | > 100 | > 100 | > 100 | – | – | – | – | – | – | – | – | – | – |
| Nc1nc(Cl)cc(NCC2(CO)CCC(Cc3ccccc3)C2)n1 (stereo not given) | 30.6 | > 100 | > 100 | > 75.7 | > 89.9 | > 65.8 | > 100 | > 96.1 | > 100 | > 77 | – | – | – | – | – | – | – | – | – | – |
